Assay results published in patent publication US20080096858A1, “Method of Stabilizing Disordered Cefovecin Sodium Salt” (UNIVERSITY OF CONNECTICUT, priority 2004, published 2008).

Tests used:
[1] = Storage stability at 40° C. of cefovecin sodium salt annealed at 75° C., monitored by RP-HPLC (Example 1); details: for relative rate constant k/k0 / degradation rate constant k: storage at 40° C.; for degradation rate constant k: zero-order model, SD in ( )
Protocol: Cefovecin sodium salt was dissolved in WFI at a concentration of 200 mg cefovecin sodium salt/ml. This solution was filtered using 0.22μ sterilized filters. 4.25 ml of this solution was volumetrically filled in the laminar flow hood into a 20-ml Flint Type I Tubular Treated Vials. 20 mm Lyophile D777-1, B2TR FluoroTec Single Vent Stoppers were partially inserted in the vials. The vials were lyophilized using Vertis freeze dryer (Gardiner, N.Y.) using the following cycle: frozen at −40° C. followed by vacuum drying at the shelf temperature of −18° C. for approximately 42 hours, and 60 millitore vacuum; secondary dried at a temperature of 40° C. for approximately 12 hours and 60 millitore vacuum. The lyophilizer chamber was back flushed with nitrogen and the vials were capped and sealed with aluminum shells.
Amorphous lyophilized cefovecin sodium salt was annealed in sealed vials at 75° C. for 20 and 60 min. The sealed vials with untreated cefovecin sodium salt (control), and vials with annealed cefovecin sodium salt were stored at 40° C. at ambient humidity for 6 and 12 weeks.
(§1) Reverse Phase High Performance Liquid Chromatography (RP-HPLC) was used to monitor degradation of cefovecin sodium salt. HPLC was carried out with a Waters Alliance (Milford, Mass.) system with a UV detector set at 256 nm and a Kromasil C4 column 4.6×250 mm, 5 μm, 100 angstrom pore size (Waters, Milford, Mass.). Column temperature was 30±2° C. and the samples were maintained in the auto sampler at 5±3° C. and the flow rate was 1 mL/min. Gradient method was used with mobile phase A consisting of (9:1) 0.025M sodium phosphate buffer solution, pH 6.5: acetonitrile in HPLC grade water, and mobile phase B consisting of (4:6) 0.025M sodium phosphate buffer solution, pH 6.5: acetonitrile in HPLC grade water.
(§2) The lyophilized cake was dissolved in WFI, and the solution was injected into the HPLC column. Contents of cefovecin sodium salt and a main degradant with relative retention time of approximately 1.6 were calculated as Ac/ΣAi, where Ac is the peak area of either cefovecin sodium salt or the degradant, and ΣAi is a total area of all chromatographic peaks. […] Stability data obtained for two annealed samples and the control sample are graphically illustrated in FIG. 1.
In addition, relative rate constants, k/k0 (where k0 is the rate constant of the control) were calculated in relation to control. The k/k0 are plotted in FIG. 2 as a function of annealing time at 75° C.

[2] = Storage stability at 40° C. for 6 months of cefovecin sodium salt annealed at 60° C., monitored by RP-HPLC (Example 2)
Protocol: as §1, §2
Amorphous lyophilized cefovecin sodium salt was annealed in sealed vials at 60° C. for 300 min in a contract lab, UCONN, Storrs, Conn. Untreated samples (control), and annealed samples were placed on stability at 40° C. for 6 months. Reverse Phase High Performance Liquid Chromatography was used to monitor degradation as described in Example 1.

[3] = HPLC purity of thermally treated freeze-dried cefovecin sodium salt (Example 3, Table 3)
Protocol: as §1, §2
A freeze-dried formulation that contains cefovecin sodium salt was prepared as follows. Cefovecin sodium salt was dissolved in citrate buffer at pH 6.7. […] The solution contained 200 mg/ml of cefovecin sodium salt, 50 mM citrate buffer, 4.5 mg/ml methylparaben, and 0.5 mg/ml propylparaben. The solution was filled in 20 ml glass vials, 4.25 ml/vial. The vials were partially stoppered with single-vent D777-1 and loaded into a freeze-drier (Hull 450 FXS800S, Warminster, Pa.). The solution was frozen at −40° C. followed by primary drying at the shelf temperature of −10° C. and approximately 200 millitore vacuum; after the product temperature approached −12° C., secondary drying was performed at shelf temperature 40° C. for approximately 12 hours and 200 millitore vacuum. Lyophilized cefovecin sodium salt was prepared in a contract facility, SmithKline Beecham Corporation, Conshocken, Pa. […] The lyophilized samples were annealed in sealed vials at 160° C. for 120 min and 170° C./45 min. The untreated samples (control), and annealed samples were tested by HPLC; HPLC conditions are described in Example 1.

[4] = Physical form (crystallization) during thermal treatment; assay type: physicochemical; details: thermal treatment according to the invention; material remained amorphous
[5] = annealed at 60° C.; stability study at 25 and 40° C.; cited from earlier work
[6] = after storage 12 weeks at 40° C., ambient humidity, annealed at 75° C.
[7] = 0 min annealing at 75° C. (control)
[8] = after storage 6 months at 40° C., annealed at 60° C.

With CO/N=C(\C(=O)N[C@@H]1C(=O)N2C(C(=O)[O-])=C([C@@H]3CCCO3)CS[C@H]12)c1csc(N)n1.[Na+] [cefovecin sodium salt] the “dimer level of annealed samples compared with control” value [1, 6] was “lower”, the “overall purity of annealed samples compared with control” value [1, 6] was “higher” and the “degradation caused by annealing (initial time points)” value ([1]; annealing 20 and 60 min at 75° C., lower purity, higher dimer) was “some degradation”. For the same compound, the “effect of annealing on stability” value ([1]; annealing at 75° C.) was “increased the stability”, the “relative rate constant k/k0” value [1, 7] was 1.00 and the “degradation rate constant k” value [1, 7] was −0.12 (0.01) %/week. The “relative rate constant k/k0” value ([1]; annealed 20 min at 75° C.) was 0.82, the “degradation rate constant k” value ([1]; annealed 20 min at 75° C.) was −0.095 (0.006) %/week and the “relative rate constant k/k0” value ([1]; annealed 60 min at 75° C.) was 0.71. The “degradation rate constant k” value ([1]; annealed 60 min at 75° C.) was −0.082 (0.005) %/week, the “dimer level of annealed sample compared with control” value [2, 8] was “lower” and the “purity of annealed sample compared with control” value [2, 8] was “higher”. The “purity (cefovecin sodium salt)” value ([2]; annealed 60° C. 300 min, 0 months at 40° C.) was 98.11 area %, the “purity (cefovecin sodium salt)” value ([2]; annealed 60° C. 300 min, 6 months at 40° C.) was 96.49 area % and the “effect of annealing on stability” value ([2]; annealing at 60° C.) was “increased the stability”. For the same compound, the “purity (cefovecin sodium salt)” value ([2]; control (not annealed), 0 months at 40° C.) was 98.35 area %, the “purity (cefovecin sodium salt)” value ([2]; control (not annealed), 6 months at 40° C.) was 96.35 area % and the Purity ([3]; after annealing 60° C./300 min (Example 2)) was 98.1 area %. The Purity ([3]; after annealing 75° C./20 min (Example 1)) was 97.5 area %, the Purity ([3]; after annealing 75° C./60 min (Example 1)) was 97.5 area % and the Purity ([3]; after annealing 160° C./120 minutes, freeze-dried formulation with citrate buffer, methylparaben, propylparaben (Example 3)) was 69.8 area %. For the same compound, the Purity ([3]; after annealing 170° C./45 minutes, freeze-dried formulation with citrate buffer, methylparaben, propylparaben (Example 3)) was 70.3 area %, the “degradation caused by annealing” value ([3]; annealing at 160° C. and 170° C.) was “unacceptable levels of degradation” and the “degradation caused by thermal treatment compared with examples 1 and 2” value ([3]; treatment at both 160° C. and 170° C.) was “significant degradation”. For the same compound, the “crystallization during thermal treatment” value [4] was “did not occur”.
For CO[C@@]1(NC(=O)C(C(=O)[O-])c2ccc(O)cc2)C(=O)N2C(C(=O)[O-])=C(CSc3nnnn3C)COC21.[Na+].[Na+] (some centres unmarked) [moxalactam, moxalactam (di-sodium salt)], the “rate of decarboxylation of annealed sample compared with control” value [5] is given as “lower”.
